Non-standard residues stand in square brackets, D forms with d. Residues, ends and D or L forms follow the SMILES beside them.
Assays:
[1] = system: LN-18 cells; test: Cell death by PI staining and flow cytometry, LN-18; assay type: cell-based, human; conditions: 6 h at 37°C, serum-free medium, means ± SD (n=3), Fig 1H, read-out: IC50 for inducing cell death
From the text: Figure 1 VDAC1-based peptides induce dramatic cell death of several brain tumor-derived cell lines but to lesser extent in primary brain cells A. IHC staining of VDAC1 of human normal brain (n=13) or glioblastoma (n=41) in tissue array slides (Biomax), as described in Materials and methods available online in Supplemental information. Percentages of sections stained at the intensity indicated are shown. […] The VDAC1-derived sequences Δ(1-14)N-terminus and LP4 are in green and pink, respectively. The cell-penetrating peptides Antp and Tf are in orange and blue, respectively. The loop shape of LP4 stabilized by a tryptophan zipper is in purple. The amino acids of Δ(1-14)N-terminus, LP4 and Antp are in the D configuration. The sequences of D-LP4 and Retro-D-LP4 are presented below. C. […] Cells were harvested, washed twice with PBS and cell death was analyzed by propidium iodide (PI) staining and flow cytometry. […] Cells were harvested, washed twice with PBS and cell death was analyzed by PI staining and flow cytometry. […]
Cells (6×10^5 /ml) were incubated in 500 μl serum-free medium with the peptide of interest for 6 h at 37°C in the presence of 5% CO2. The cells were then trypsinized, centrifuged (1500xg, 5 min), washed with PBS and analyzed for cell death using propidium iodide (PI) staining and flow cytometer (Beckton-Dickinson, San Jose, CA) and BD CellQuest Pro software. […]

[2] = system: mice bearing U-87MG intracranial xenografts; test: Survival (Kaplan-Meier) in U-87MG intracranial xenograft; assay type: in vivo, human U-87MG in nude mice; conditions: 10 mg/kg i.v., treatment ended day 46 post-inoculation
Experimental: B. U-87MG cells (2×10^5) were incubated for 12 h with the indicated concentrations of DMSO, Retro-Tf-D-LP4 peptide (Pep), or Retro-Tf-D-LP4 encapsulated in PLGA nanoparticles (PLGA-Pep). Samples of Retro-Tf-D-LP4 encapsulated in PLGA nanoparticles were centrifuged (15000g, 5 min) to separate the supernatant (Sup), containing free peptide, and the pellet, containing encapsulated Retro-Tf-D-LP4 peptide. Cell death was analyzed by PI staining and FACS analysis. C. Graphical representation of the orthotopic animal experiment. D. MRI imaging of brains 29 days post-intravenal treatment start with DMSO (1.05%), Retro-Tf-D-LP4 (10 mg/kg) encapsulated in PLGA nanoparticles or Tf-D-Retro-LP4 peptide (10 mg/Kg), as described in Materials and Methods available online in Supplemental information. E. Calculated tumor volumes after 20 (dark grey bars) and 29 (light grey bars) days post-treatment start. Results = mean ± SE (n = 6) (* p<0.05, *** p<0.001). F. Kaplan-Meier survival curves showing statistically significant differences in survival curves between the PBS/DMSO and Retro-Tf-D-LP4 treated mice. […]
For the intracranial-orthotopic xenograft mouse model, U-87MG cells (8×10^4) were engrafted into a nude mouse brain using a stereotactic device. […] Tumor volume was analyzed using VivoQuant 2.10 software.

[3] = system: SH-SY5Y cells; test: Apoptosis by acridine orange/ethidium bromide staining, SH-SY5Y; assay type: cell-based, human; conditions: 3 h, Suppl Fig 2B
Experimental: […] The cells were then trypsinized, centrifuged (1500xg, 5 min), washed with PBS and analyzed for cell death using propidium iodide (PI) staining and flow cytometer (Beckton-Dickinson, San Jose, CA) and BD CellQuest Pro software. Apoptotic cell death was also analyzed by PI and annexin V-FITC staining, and by acridine orange and ethidium bromide staining and light microscopy (Olympus LX2-KSP).
Supplementary Figure 2: Mode of action of VDAC1-based peptides. […]
detachment. SH-SY5Y cells (4×10^4/ml) were grown on cover slips, transfected with plasmid pEGFP-HK-I and after 24 h, were incubated […]
The final DMSO concentration in control and peptide-treated cells was 0.07%. Fixed cells were stained with DAPI and visualized by confocal microscopy (Olympus 1X81). Arrows indicate cells […]
showing diffusion of HK-I-GFP. B-C. […] B. SH-SY5Y cells were treated with the indicated […]
Arrows and arrowheads indicate cells with membrane blebbing (early apoptotic state) and late apoptotic states, respectively. C. Morphological analysis of apoptosis by electron microscopy (EM). For transmission EM, U-87MG cells (1.6 x10^6 /ml) were incubated with the indicated concentrations of D-ΔN-Ter-Antp peptide or DMSO (0.3% final concentration) for 6 h in serum-free medium. […]

## CC[C@@H](C)[C@@H](NC(=O)[C@@H](CCCCN)NC(=O)[C@H](NC(=O)[C@@H](CCC(N)=O)NC(=O)[C@@H](CCCNC(=N)N)NC(=O)[C@@H](CC(C)C)NC(=O)CNC(=O)[C@@H](Cc1ccccc1)NC(=O)CNC(=O)[C@@H](Cc1ccc(O)cc1)NC(=O)CNC(=O)[C@@H](CCCCN)NC(=O)[C@H](NC(=O)[C@@H](Cc1ccccc1)NC(=O)[C@H](NC(=O)[C@@H](CC(=O)O)NC(=O)[C@H](N)CCCNC(=N)N)C(C)C)[C@H](C)O)[C@H](C)CC)C(=O)N[C@H](Cc1c[nH]c2ccccc12)C(=O)N[C@H](Cc1ccccc1)C(=O)N[C@H](CCC(N)=O)C(=O)N[C@H](CC(N)=O)C(=O)N[C@H](CCCNC(=N)N)C(=O)N[C@H](CCCNC(=N)N)C(=O)N[C@H](CCSC)C(=O)N[C@H](CCCCN)C(=O)N[C@H](Cc1c[nH]c2ccccc12)C(=O)N[C@H](CCCCN)C(=O)N[C@H](CCCCN)C(=O)O [D-ΔN-Ter-Antp] (H-[dR][dD][dV][dF][dT][dK]G[dY]G[dF]G[dL][dR][dQ][dI][dK][dI][dW][dF][dQ][dN][dR][dR][dM][dK][dW][dK][dK]-OH; N-terminus and C-terminus assumed)
[1]
  IC50: 3000 ± 600 nM

## CC[C@H](C)[C@H](NC(=O)[C@H](Cc1ccc(O)cc1)NC(=O)[C@@H]1CCCN1C(=O)[C@H](CCCNC(=N)N)NC(=O)[C@H](Cc1c[nH]cn1)NC(=O)[C@H](CO)NC(=O)[C@H](Cc1c[nH]c2ccccc12)NC(=O)[C@@H](NC(=O)[C@H](Cc1c[nH]c2ccccc12)NC(=O)[C@H](CCC(=O)O)NC(=O)[C@@H](CCCCN)NC(=O)[C@@H](CCCCN)NC(=O)[C@@H](CC(C)C)NC(=O)[C@@H](CCC(=O)O)NC(=O)[C@H](NC(=O)[C@@H](C)NC(=O)[C@H](NC(=O)[C@@H](CC(N)=O)NC(=O)[C@@H](CC(C)C)NC(=O)[C@@H](C)NC(=O)[C@@H](Cc1c[nH]c2ccccc12)NC(=O)[C@H](NC(=O)[C@@H](C)NC(=O)CNC(=O)[C@@H](CC(N)=O)NC(=O)[C@@H](CO)NC(=O)[C@@H](CC(N)=O)NC(=O)[C@H](CCCCN)NC(=O)[C@H](Cc1c[nH]c2ccccc12)NC(=O)[C@@H](NC(=O)[C@H](Cc1c[nH]c2ccccc12)NC(=O)[C@@H](N)CCCCN)[C@@H](C)O)[C@H](C)O)C(C)C)[C@H](C)O)[C@@H](C)O)C(=O)N[C@@H](C)C(=O)N[C@@H](Cc1c[nH]cn1)C(=O)O [Retro-Tf-D-LP4]
[2]
  prolongation of survival relative to untreated mice: over 60 days
[2]; followed another 46 days, untreated all died by day 32
  mice with prolonged survival: 40%

## CC[C@H](C)[C@H](NC(=O)[C@H](C)NC(=O)[C@@H](N)Cc1c[nH]cn1)C(=O)N[C@@H](Cc1ccc(O)cc1)C(=O)N1CCC[C@H]1C(=O)N[C@@H](CCCNC(=N)N)C(=O)N[C@@H](Cc1c[nH]cn1)C(=O)N[C@@H](CO)C(=O)N[C@@H](Cc1c[nH]c2ccccc12)C(=O)N[C@H](C(=O)N[C@@H](Cc1c[nH]c2ccccc12)C(=O)N[C@@H](CCC(=O)O)C(=O)N[C@H](CCCCN)C(=O)N[C@H](CCCCN)C(=O)N[C@H](CC(C)C)C(=O)N[C@H](CCC(=O)O)C(=O)N[C@@H](C(=O)N[C@H](C)C(=O)N[C@@H](C(=O)N[C@H](CC(N)=O)C(=O)N[C@H](CC(C)C)C(=O)N[C@H](C)C(=O)N[C@H](Cc1c[nH]c2ccccc12)C(=O)N[C@@H](C(=O)N[C@H](C)C(=O)NCC(=O)N[C@H](CC(N)=O)C(=O)N[C@H](CO)C(=O)N[C@H](CC(N)=O)C(=O)N[C@@H](CCCCN)C(=O)N[C@@H](Cc1c[nH]c2ccccc12)C(=O)N[C@H](C(=O)N[C@@H](Cc1c[nH]c2ccccc12)C(=O)N[C@@H](CCCCN)C(=O)O)[C@@H](C)O)[C@H](C)O)C(C)C)[C@H](C)O)[C@@H](C)O [Tf-D-LP4]
[3]
  apoptosis induction, SH-SY5Y: induce apoptosis
